The source of these data is US20210040118A1, “IMMUNOMODULATORS, COMPOSITIONS AND METHODS THEREOF” (BETTA PHARMACEUTICALS CO., LTD, priority 2018, published 2021).

The target in this test is T1, PD-1/PD-L1 (Homo sapiens, UniProt Q9NZQ7).
T1 construct: Recombinant human PD-L1 protein (19-238) with a His-tag at the C-terminus; purchased AcroBiosystems PD1-H5229 (PD-L1); PD1-H5257 (PD-1)
The test can be described thus: PD-1/PD-L1 homogenous time-resolved fluorescence (HTRF) binding assay. As to conditions: recombinant human PD-L1 (19-238) His-tag / human PD-1 (25-167) Fc tag. In short, it runs like this:
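Inhibitors were preincubated 40 min at 25°C with 10 nM His-tagged human PD-L1 (19-238) and 3 nM Fc-tagged human PD-1 (25-167) in PBS pH 7.4 containing Tween-20, BSA and 1% DMSO. After 60 min with europium anti-human IgG and anti-His-APC, 665/620 nm signal ratio gave IC50 via percent-control fit.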

A value given as a limit tells only on which side of the number the result lay.

T1 sequence (Q9NZQ7 19-238): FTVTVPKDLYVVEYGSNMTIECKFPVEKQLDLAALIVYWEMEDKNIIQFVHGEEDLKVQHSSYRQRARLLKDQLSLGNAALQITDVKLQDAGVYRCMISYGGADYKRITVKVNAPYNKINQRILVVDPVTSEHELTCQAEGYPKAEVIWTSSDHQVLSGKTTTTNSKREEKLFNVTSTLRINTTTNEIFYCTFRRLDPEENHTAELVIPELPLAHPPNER

Usually IC50 stands for the midpoint of a concentration-inhibition curve. With `Cc1c(NC(=O)c2nc3c(s2)CN(CC(=O)O)CC3)cccc1-c1cccc(NC(=O)c2nc3c(s2)CN(CC(=O)O)CC3)c1C` [Example 4, 2,2′-((((2,2′-dimethyl-[1,1′-biphenyl]-3,3′-diyl)bis(azanediyl))bis(carbonyl))bis(6,7-dihydrothiazolo[5,4-c]pyridine-2,5(4H)-diyl))diacetic acid], the IC50 (class symbols) is under 25 nM.
On to `Cc1nc(C(=O)Nc2cccc(-c3cccc4c3CCN4C(=O)c3nc(C)c(CN4CCCC[C@H]4C(=O)O)s3)c2Cl)sc1CN1CCCC[C@H]1C(=O)O` [Example 60, (S)-1-((2-(3-(1-(5-(((S)-2-carboxypiperidin-1-yl)methyl)-4-methylthiazole-2-carbonyl)indolin-4-yl)-2-chlorophenylcarbamoyl)-4-methylthiazol-5-yl)methyl)piperidine-2-carboxylic acid], for which the IC50 (class symbols) is under 25 nM.
Turning to `COC(=O)NCCN1CCc2nc(C(=O)N3CCc4c(-c5cccc6c5CCN6C(=O)c5nc6c(s5)CN(CCNC(=O)OC)CC6)cccc43)sc2C1` [Example 130, dimethyl ((([4,4′-biindoline]-1,1′-dicarbonyl)bis(6,7-dihydrothiazolo[5,4-c]pyridine-2,5(4H)-diyl))bis(ethane-2,1-diyl))dicarbamate], the IC50 (class symbols) is under 25 nM.
`CC(C)[C@H](NCc1cnc(C(=O)Nc2cccc(-c3cccc(NC(=O)c4ncc(CN[C@H](C(=O)O)C(C)C)s4)c3Cl)c2Cl)s1)C(=O)O` [Example 69, ((2-((3′-(5-((((S)-1-carboxy-2-methylpropyl)amino)methyl)thiazole-2-carboxamido)-2,2′-dichloro-[1,1′-biphenyl]-3-yl)carbamoyl)thiazol-5-yl)methyl)-L-valine]: where the note is “class symbols”, the half-inhibitory concentration (IC50) was under 25 nM.
Consider `CN1CCc2nc(C(=O)Nc3cccc(-c4cccc(NC(=O)c5nc6c(s5)CN(C)CC6)c4Cl)c3Cl)sc2C1` [Example 44, N,N′-(2,2′-dichloro-[1,1′-biphenyl]-3,3′-diyl)bis(5-methyl-4,5,6,7-tetrahydrothiazolo[5,4-c]pyridine-2-carboxamide)], for which the IC50 (numeric values) amounted to 0.62 nM.
In the case of `Cc1c(NC(=O)c2ncc(CN3CCCC3)s2)cccc1-c1cccc(NC(=O)c2ncc(CN3CCCC3)s2)c1C` [Example 29, N,N′-(2,2′-dimethyl-[1,1′-biphenyl]-3,3′-diyl)bis(5-(pyrrolidin-1-ylmethyl)thiazole-2-carboxamide)], the IC50 (class symbols) was under 25 nM.
Same read-out and setting: next, `Cc1c(Nc2nccc3cc(CNC(C(=O)O)C(C)C)cnc23)cccc1-c1cccc(Nc2nccc3cc(CNC(C(=O)O)C(C)C)cnc23)c1C` (stereo not shown) [Example 142, 2,2′-(((((2,2′-dimethyl-[1,1′-biphenyl]-3,3′-diyl)bis(azanediyl))bis(1,7-naphthyridine-8,3-diyl))bis(methylene))bis(azanediyl))bis(3-methylbutanoic acid)]: under 25 nM.
Consider `Cc1c(NC(=O)c2nc3c(s2)CNCC3)cccc1-c1cccc(NC(=O)c2nc3c(s2)CNCC3)c1C` [Example 1, N,N′-(2,2′-dimethyl-[1,1′-biphenyl]-3,3′-diyl)bis(4,5,6,7-tetrahydrothiazolo[5,4-c]pyridine-2-carboxamide)], for which the IC50 (numeric values) was determined as 0.48 nM.
For `Cc1c(NC(=O)c2ccc3c(n2)CCN(CCN2CCOCC2)C3)cccc1-c1cccc(NC(=O)c2ccc3c(n2)CCN(CCN2CCOCC2)C3)c1C` [Example 176, N,N′-(2,2′-dimethyl-[1,1′-biphenyl]-3,3′-diyl)bis(6-(2-morpholinoethyl)-5,6,7,8-tetrahydro-1,6-naphthyridine-2-carboxamide)], under “class symbols”, the 50% inhibitory concentration (IC50) was in the range of 25 to 100 nM.
As to `O=C(Nc1cccc(-c2cccc(NC(=O)c3nc4c(s3)CNCC4)c2Cl)c1Cl)c1nc2c(s1)CNCC2` [Example 89, N,N′-(2,2′-dichloro-[1,1′-biphenyl]-3,3′-diyl)bis(4,5,6,7-tetrahydrothiazolo[5,4-c]pyridine-2-carboxamide)], the half-maximal inhibitory concentration (IC50) (class symbols) was under 25 nM.
As for `Cc1c(Nc2nccc3cc(CN4CCOCC4)cnc23)cccc1-c1cccc(Nc2nccc3cc(CN4CCOCC4)cnc23)c1C` [Example 151, 2,2′-dimethyl-N3,N3′-bis(3-(morpholinomethyl)-1,7-naphthyridin-8-yl)-[1,1′-biphenyl]-3,3′-diamine], the IC50 (class symbols) was under 25 nM.
As for `Cc1c(NC(=O)c2nc3c(s2)CN(CCCN2CCOCC2)CC3)cccc1-c1cccc(NC(=O)c2nc3c(s2)CN(CCCN2CCOCC2)CC3)c1C` [Example 81, N,N′-(2,2′-dimethyl-[1,1′-biphenyl]-3,3′-diyl)bis(5-(3-morpholinopropyl)-4,5,6,7-tetrahydrothiazolo[5,4-c]pyridine-2-carboxamide)], for the setting “class symbols”, the 50% inhibitory concentration (IC50) was under 25 nM.
As to `Cc1nc(C(=O)Nc2cccc(-c3cccc(NC(=O)c4nc(C)c(CN[C@H](C(=O)O)C5CCOCC5)s4)c3Cl)c2C)sc1CN[C@H](C(=O)O)C1CCOCC1` [Example 55, (2S,2'S)-2,2′-(2,2′-(2-chloro-2′-methylbiphenyl-3,3′-diyl)bis(azanediyl)bis(oxomethylene)bis(4-methylthiazole-5,2-diyl))bis(methylene)bis(azanediyl)bis(2-(tetrahydro-2H-pyran-4-yl)acetic acid)], the half-inhibitory concentration (IC50) (class symbols) was under 25 nM.
Consider `Cc1c(NC(=O)c2cn3c(n2)CN(C(C)CO)CC3)cccc1-c1cccc(NC(=O)c2cn3c(n2)CN(C(C)CO)CC3)c1C` (stereo not shown) [Example 36, N,N′-(2,2′-dimethyl-[1,1′-biphenyl]-3,3′-diyl)bis(7-(1-hydroxypropan-2-yl)-5,6,7,8-tetrahydroimidazo[1,2-a]pyrazine-2-carboxamide)], for which the concentration for half-maximal inhibition (IC50) (class symbols) was under 25 nM.
For `CC(=O)N1CCc2c(nc(C(=O)Nc3cccc(-c4cccc(NC(=O)c5ccc6c(n5)CCNC6)c4C)c3C)n2C)C1` [Example 183, N-(3′-(5-acetyl-1-methyl-4,5,6,7-tetrahydro-1H-imidazo[4,5-c]pyridine-2-carboxamido)-2,2′-dimethyl-[1,1′-biphenyl]-3-yl)-5,6,7,8-tetrahydro-1,6-naphthyridine-2-carboxamide], the 50% inhibitory concentration (IC50) (class symbols) is under 25 nM.
Consider `Cc1c(Nc2nccc3cc(CNC(C)C(=O)O)cnc23)cccc1-c1cccc(Nc2nccc3cc(CNC(C)C(=O)O)cnc23)c1C` (stereo not shown) [Example 140, 2,2′-(((((2,2′-dimethyl-[1,1′-biphenyl]-3,3′-diyl)bis(azanediyl))bis(1,7-naphthyridine-8,3-diyl))bis(methylene))bis(azanediyl))dipropionic acid], for which, where the note is “class symbols”, the 50% inhibitory concentration (IC50) is under 25 nM.
Take `CNCc1cnc(C(=O)N2CCc3c(-c4cccc5c4CCN5C(=O)c4ncc(CNC)s4)cccc32)s1` [Example 113, [4,4′-biindoline]-1,1′-diylbis((5-((methylamino)methyl)thiazol-2-yl)methanone)]: the IC50 (class symbols) is under 25 nM.
Consider `Cc1c(Nc2nccc3cc(CNCCO)cnc23)cccc1-c1cccc2c1CCN2C(=O)C1=NC2CCN(CCC(=O)O)CC2S1` (stereo not shown) [Example 162, 3-(2-(4-(3-((3-(((2-hydroxyethyl)amino)methyl)-1,7-naphthyridin-8-yl)amino)-2-methylphenyl)indoline-1-carbonyl)-3a,6,7,7a-tetrahydrothiazolo[5,4-c]pyridin-5(4H)-yl)propanoic acid], for which the IC50 (class symbols) is under 25 nM.
`O=C(O)CN1CCc2nc(C(=O)N3CCc4c(-c5cccc6c5CCN6C(=O)c5nc6c(s5)CN(CC(=O)O)CC6)cccc43)sc2C1` [Example 103, 2,2′-(([4,4′-biindoline]-1,1′-dicarbonyl)bis(6,7-dihydrothiazolo[5,4-c]pyridine-2,5(4H)-diyl))diacetic acid]: the IC50 (numeric values) was found to be 0.37 nM.
For `O=C(c1nc2c(s1)CN(CCCB(O)O)CC2)N1CCc2c(-c3cccc4c3CCN4C(=O)c3nc4c(s3)CN(CCCB(O)O)CC4)cccc21` [Example 121, ((([4,4′-biindoline]-1,1′-dicarbonyl)bis(6,7-dihydrothiazolo[5,4-c]pyridine-2,5(4H)-diyl))bis(propane-3,1-diyl))diboronic acid], the IC50 (class symbols) is under 25 nM.
The same measure, in the same setting: next, `Cc1c(NC(=O)c2ccc3c(n2)CCN(CCO)C3)cccc1-c1cccc(NC(=O)c2ccc3c(n2)CCN(CCO)C3)c1C` [Example 174, N,N′-(2,2′-dimethyl-[1,1′-biphenyl]-3,3′-diyl)bis(6-(2-hydroxyethyl)-5,6,7,8-tetrahydro-1,6-naphthyridine-2-carboxamide)]: under 25 nM; `CN(C)C(=O)CN1CCc2nc(C(=O)N3CCc4c(-c5cccc6c5CCN6C(=O)c5nc6c(s5)CN(CC(=O)N(C)C)CC6)cccc43)sc2C1` [Example 106, 2,2′-(([4,4′-biindoline]-1,1′-dicarbonyl)bis(6,7-dihydrothiazolo[5,4-c]pyridine-2,5(4H)-diyl))bis(N,N-dimethylacetamide)]: under 25 nM; `O=C(c1nc2n(n1)CCNC2)N1CCc2c(-c3cccc4c3CCN4C(=O)c3nc4n(n3)CCNC4)cccc21` [Example 136, [4,4′-biindoline]-1,1′-diylbis((5,6,7,8-tetrahydro-[1,2,4]triazolo[1,5-a]pyrazin-2-yl)methanone)]: 100 to 200 nM.
Still for that read-out and setting: the figure for `O=C(c1nc2c(s1)CN(Cc1nn[nH]n1)CC2)N1CCc2c(-c3cccc4c3CCN4C(=O)c3nc4c(s3)CN(Cc3nn[nH]n3)CC4)cccc21` [Example 125, [4,4′-biindoline]-1,1′-diylbis((5-((2H-tetrazol-5-yl)methyl)-4,5,6,7-tetrahydrothiazolo[5,4-c]pyridin-2-yl)methanone)] is under 25 nM; for `Cc1c(NC(=O)c2nc3cc(N)ccc3[nH]2)cccc1-c1cccc(NC(=O)c2nc3c(s2)CNCC3)c1C` [Example 12, N-(3′-(5-amino-1H-benzo[d]imidazole-2-carboxamido)-2,2′-dimethyl-[1,1′-biphenyl]-3-yl)-4,5,6,7-tetrahydrothiazolo[5,4-c]pyridine-2-carboxamide] it is 25 to 100 nM.
